Data on 26 compounds can be found in US6972296B2, “Carboxylic acid derivatives that inhibit the binding of integrins to their receptors” (Encysive Pharmaceuticals Inc., priority 1999, dated 2005).

The target of the experiment is T1, α4β1 integrin (Homo sapiens, UniProt P05556+P13612).
T1 construct: endogenous in cells; host or cells: Ramos cells
The experiment in a line: Adhesion of calcein-labeled Ramos cells to CS1 (fibronectin) peptide conjugated ovalbumin. The class given is cell-based. Conditions: Ramos cell adhesion to CS1 conjugated ovalbumin. Summed up: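 Calcein AM-labelled Ramos cells (2.5×10^5/well) with compound, up to 100 μM, added to plates coated with CS1 peptide–ovalbumin (0.5 μg/ml) and blocked with 3% BSA. Binding buffer TBS pH 7.5 with 1 mM each MgCl2, CaCl2, MnCl2; 30 min, 37 °C. After washes, adherent cells lysed and read fluorometrically; […].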

Setting [1] is: Table 7, dose required to give 50% inhibition.
Where [2] appears, read: Table 5, dose required to give 50% inhibition.

T1 sequence (P13612 34-1032): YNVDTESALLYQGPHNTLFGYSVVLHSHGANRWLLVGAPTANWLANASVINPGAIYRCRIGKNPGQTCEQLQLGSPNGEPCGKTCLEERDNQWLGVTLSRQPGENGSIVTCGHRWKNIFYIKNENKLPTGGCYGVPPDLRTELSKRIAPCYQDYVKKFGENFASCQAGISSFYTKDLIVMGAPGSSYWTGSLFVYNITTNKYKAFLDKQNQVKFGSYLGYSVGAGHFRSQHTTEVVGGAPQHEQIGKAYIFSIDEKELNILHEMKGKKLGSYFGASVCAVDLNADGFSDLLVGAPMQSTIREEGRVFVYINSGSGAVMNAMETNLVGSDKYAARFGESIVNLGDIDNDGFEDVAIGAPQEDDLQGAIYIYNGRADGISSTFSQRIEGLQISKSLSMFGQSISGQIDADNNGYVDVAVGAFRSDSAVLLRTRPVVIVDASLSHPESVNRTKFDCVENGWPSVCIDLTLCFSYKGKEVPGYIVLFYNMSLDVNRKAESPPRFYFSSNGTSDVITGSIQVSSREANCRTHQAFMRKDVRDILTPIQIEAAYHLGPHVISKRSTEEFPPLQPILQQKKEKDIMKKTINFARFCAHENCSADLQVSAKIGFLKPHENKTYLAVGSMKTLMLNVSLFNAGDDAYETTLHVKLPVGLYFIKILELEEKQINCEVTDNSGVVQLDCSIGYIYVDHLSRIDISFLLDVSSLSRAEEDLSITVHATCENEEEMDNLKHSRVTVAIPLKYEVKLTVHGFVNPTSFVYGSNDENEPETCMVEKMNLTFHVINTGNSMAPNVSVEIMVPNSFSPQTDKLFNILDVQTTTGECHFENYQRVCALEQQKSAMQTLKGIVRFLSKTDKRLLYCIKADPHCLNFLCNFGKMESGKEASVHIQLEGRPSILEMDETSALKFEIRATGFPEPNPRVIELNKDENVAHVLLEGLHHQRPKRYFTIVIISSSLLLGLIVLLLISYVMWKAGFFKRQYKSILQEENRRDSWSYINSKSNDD
T1 sequence (P05556 21-798): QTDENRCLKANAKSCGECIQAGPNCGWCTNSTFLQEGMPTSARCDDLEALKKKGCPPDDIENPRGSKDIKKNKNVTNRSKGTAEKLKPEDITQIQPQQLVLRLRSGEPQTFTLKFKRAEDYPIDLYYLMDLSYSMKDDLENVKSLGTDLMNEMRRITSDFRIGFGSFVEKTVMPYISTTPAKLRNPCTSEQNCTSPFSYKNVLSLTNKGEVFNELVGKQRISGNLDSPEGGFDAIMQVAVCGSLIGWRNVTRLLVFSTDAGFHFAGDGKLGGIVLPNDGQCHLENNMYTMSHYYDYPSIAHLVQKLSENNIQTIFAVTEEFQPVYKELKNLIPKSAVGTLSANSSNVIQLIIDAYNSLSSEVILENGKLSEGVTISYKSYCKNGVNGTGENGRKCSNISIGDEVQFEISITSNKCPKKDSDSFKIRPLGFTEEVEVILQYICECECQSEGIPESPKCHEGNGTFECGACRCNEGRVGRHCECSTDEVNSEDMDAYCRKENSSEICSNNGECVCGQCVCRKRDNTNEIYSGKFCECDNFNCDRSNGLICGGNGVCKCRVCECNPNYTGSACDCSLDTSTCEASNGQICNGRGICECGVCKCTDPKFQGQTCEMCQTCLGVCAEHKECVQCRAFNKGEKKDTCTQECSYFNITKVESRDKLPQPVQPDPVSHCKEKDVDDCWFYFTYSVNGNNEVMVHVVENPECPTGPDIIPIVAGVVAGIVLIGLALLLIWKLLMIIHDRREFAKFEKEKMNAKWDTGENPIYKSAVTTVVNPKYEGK

As to `CCOc1cc(OCC)cc([C@H](CC(=O)O)NC(=O)Nc2c(O)c3c(n(Cc4c(Cl)cccc4OCC)c2=O)CCC3)c1` [(3S)-3-[({[1-(2-chloro-6-ethoxybenzyl)-4-hydroxy-2-oxo-2,5,6,7-tetrahydro-1H-cyclopenta[b]pyridin-3-yl]amino}carbonyl)amino]-3-(3,5-diethoxyphenyl)propanoic acid], the IC50 under setting [1] is 3 nM.

Take `CCCOc1cccc([C@H](CC(=O)O)NC(=O)Nc2c(O)c3c(n(Cc4c(Cl)cccc4OCC)c2=O)CCC3)c1` [(3S)-3-[({[1-(2-chloro-6-ethoxybenzyl)-4-hydroxy-2-oxo-2,5,6,7-tetrahydro-1H-cyclopenta[b]pyridin-3-yl]amino}carbonyl)amino]-3-(3-propoxyphenyl)propanoic acid]: under setting [1], the IC50 was 3 nM.

In the case of `CCOc1cccc(Cl)c1Cn1c2c(c(O)c(NC(=O)N[C@@H](CC(=O)O)c3cccc(OCC4CC4)c3)c1=O)CCC2` [(3S)-3-[({[1-(2-chloro-6-ethoxybenzyl)-4-hydroxy-2-oxo-2,5,6,7-tetrahydro-1H-cyclopenta[b]pyridin-3-yl]amino}carbonyl)amino]-3-[3-(cyclopropylmethoxy)phenyl]propanoic acid], the IC50 under setting [1] was 4 nM.

Turning to `CCOc1cccc(Cl)c1Cn1c2c(c(O)c(NC(=O)N[C@@H](CC(=O)O)c3cccc(OC4CC4)c3)c1=O)CCC2` [(3S)-3-[({[1-(2-chloro-6-ethoxybenzyl)-4-hydroxy-2-oxo-2,5,6,7-tetrahydro-1H-cyclopenta[b]pyridin-3-yl]amino}carbonyl)amino]-3-[3-(cyclopropyloxy)phenyl]propanoic acid], the IC50 under setting [1] was 2 nM.

Turning to `CCOc1cccc(Cl)c1Cn1c2c(c(O)c(NC(=O)N[C@@H](CC(=O)O)c3ccccc3)c1=O)CCC2` [(3S)-3-[({[1-(2-chloro-6-ethoxybenzyl)-4-hydroxy-2-oxo-2,5,6,7-tetrahydro-1H-cyclopenta[b]pyridin-3-yl]amino}carbonyl)amino]-3-phenylpropanoic acid], the IC50 under setting [1] is 2 nM.

On to `CCOc1cccc(Cl)c1Cn1c(C)c(C)c(O)c(NC(=O)N[C@@H](CC(=O)O)c2cccc(OC(C)C)c2)c1=O` [(3S)-3-[({[1-(2-chloro-6-ethoxybenzyl)-4-hydroxy-5,6-dimethyl-2-oxo-1,2-dihydropyridin-3-yl]amino}carbonyl)amino]-3-(3-isopropoxyphenyl)propanoic acid], for which, under setting [1], the IC50 was 3 nM.

For the compound `CCOc1cccc(Cl)c1Cn1cc(C)c(O)c(NC(=O)N[C@@H](CC(=O)O)c2ccc3c(ccn3C)c2)c1=O` [(3S)-3-[({[1-(2-chloro-6-ethoxybenzyl)-4-hydroxy-5-methyl-2-oxo-1,2-dihydropyridin-3-yl]amino}carbonyl)amino]-3-(1-methyl-1H-indol-5-yl)propanoic acid], the IC50 under setting [1] was 3 nM.

As for `CCOc1cccc(Cl)c1Cn1cc(C)c(O)c(NC(=O)N[C@@H](CC(=O)O)c2ccc3ccn(C)c3c2)c1=O` [(3S)-3-[({[1-(2-chloro-6-ethoxybenzyl)-4-hydroxy-5-methyl-2-oxo-1,2-dihydropyridin-3-yl]amino}carbonyl)amino]-3-(1-methyl-1H-indol-6-yl)propanoic acid], the IC50 under setting [1] is 3 nM.

For the compound `CCOc1cccc(Cl)c1Cn1cc(C)c(O)c(NC(=O)N[C@@H](CC(=O)O)c2ccc3c(c2)CCO3)c1=O` [(3S)-3-[({[1-(2-chloro-6-ethoxybenzyl)-4-hydroxy-5-methyl-2-oxo-1,2-dihydropyridin-3-yl]amino}carbonyl)amino]-3-(2,3-dihydro-1-benzofuran-5-yl)propanoic acid], under setting [1], the 50% inhibitory concentration (IC50) was 2 nM.

`CCOc1cccc([C@H](CC(=O)O)NC(=O)Nc2c(O)c(C)cn(Cc3c(Cl)cccc3OCC)c2=O)c1` [(3S)-3-[({[1-(2-chloro-6-ethoxybenzyl)-4-hydroxy-5-methyl-2-oxo-1,2-dihydropyridin-3-yl]amino}carbonyl)amino]-3-(3-ethoxyphenyl)propanoic acid]: where the note is “Table 6, 30 minutes at 37° C.”, the 50% inhibitory concentration (IC50) was 2 nM.

Consider `CCOc1cccc(Cl)c1Cn1cc(C)c(O)c(NC(=O)N[C@@H](CC(=O)O)c2cccc(OC(C)C)c2)c1=O` [(3S)-3-[({[1-(2-chloro-6-ethoxybenzyl)-4-hydroxy-5-methyl-2-oxo-1,2-dihydropyridin-3-yl]amino}carbonyl)amino]-3-(3-isopropoxyphenyl)propanoic acid], for which the IC50 (Table 6, 30 minutes at 37° C.) was 4 nM.

In the case of `CCOc1cccc(Cl)c1Cn1cc(C)c(O)c(NC(=O)N[C@@H](CC(=O)O)c2ccc(C)cc2)c1=O` [(3S)-3-[({[1-(2-chloro-6-ethoxybenzyl)-4-hydroxy-5-methyl-2-oxo-1,2-dihydropyridin-3-yl]amino}carbonyl)amino]-3-(4-methylphenyl)propanoic acid], the half-inhibitory concentration (IC50) (Table 6, 30 minutes at 37° C.) is 3 nM.

Regarding `CCOc1cccc(Cl)c1Cn1cc(C)c(O)c(NC(=O)N[C@@H](CC(=O)O)c2ccc3cc(OC)ccc3c2)c1=O` [(3S)-3-[({[1-(2-chloro-6-ethoxybenzyl)-4-hydroxy-5-methyl-2-oxo-1,2-dihydropyridin-3-yl]amino}carbonyl)amino]-3-(6-methoxy-2-naphthyl)propanoic acid], the concentration for half-maximal inhibition (IC50) under setting [1] was 3 nM.

Turning to `CCOc1cccc(Cl)c1Cn1cc(C)c(O)c(NC(=O)N[C@@H](CC(=O)O)c2cccc(OC(F)(F)F)c2)c1=O` [(3S)-3-[({[1-(2-chloro-6-ethoxybenzyl)-4-hydroxy-5-methyl-2-oxo-1,2-dihydropyridin-3-yl]amino}carbonyl)amino]-3-[3-(trifluoromethoxy)phenyl]propanoic acid], the half-maximal inhibitory concentration (IC50) under setting [1] was 4 nM.

Take `CCOc1cccc(Cl)c1Cn1c(C)cc(O)c(NC(=O)N[C@@H](CC(=O)O)c2cccc(OC(C)C)c2)c1=O` [(3S)-3-[({[1-(2-chloro-6-ethoxybenzyl)-4-hydroxy-6-methyl-2-oxo-1,2-dihydropyridin-3-yl]amino}carbonyl)amino]-3-(3-isopropoxyphenyl)propanoic acid]: the IC50 under setting [1] was 3 nM.

As for `CCOc1cccc(Cl)c1Cn1cc(C2CC2)c(O)c(NC(=O)N[C@@H](CC(=O)O)c2cccc(OC(C)C)c2)c1=O` [(3S)-3-[({[1-(2-chloro-6-ethoxybenzyl)-5-cyclopropyl-4-hydroxy-2-oxo-1,2-dihydropyridin-3-yl]amino}carbonyl)amino]-3-(3-isopropoxyphenyl)propanoic acid], the half-inhibitory concentration (IC50) under setting [1] was 3 nM.

Take `CCOc1cccc(Cl)c1Cn1cc(C2CC2)c(O)c(NC(=O)N[C@@H](CC(=O)O)c2ccc(C)cc2)c1=O` [(3S)-3-[({[1-(2-chloro-6-ethoxybenzyl)-5-cyclopropyl-4-hydroxy-2-oxo-1,2-dihydropyridin-3-yl]amino}carbonyl)amino]-3-(4-methylphenyl)propanoic acid]: the 50% inhibitory concentration (IC50) under setting [1] is 3 nM.

On to `COc1cccc(Cl)c1Cn1cccc(NC(=O)N[C@@H](CC(=O)O)c2ccc(C)cc2)c1=O` [(3S)-3-[({[1-(2-chloro-6-methoxybenzyl)-2-oxo-1,2-dihydropyridin-3-yl]amino}carbonyl)amino]-3-(4-methylphenyl)propanoic acid], for which the half-inhibitory concentration (IC50) under setting [2] is 100 nM.

Take `COc1cc(OC)cc([C@H](CC(=O)O)NC(=O)Nc2c(O)ccn(Cc3c(Cl)cccc3OC)c2=O)c1` [(3S)-3-[({[1-(2-chloro-6-methoxybenzyl)-4-hydroxy-2-oxo-1,2-dihydropyridin-3-yl]amino}carbonyl)amino]-3-(3,5-dimethoxyphenyl)propanoic acid]: the half-maximal inhibitory concentration (IC50) under setting [2] was 1.5 nM.

In the case of `COc1cccc(Cl)c1Cn1ccc(O)c(NC(=O)N[C@@H](CC(=O)O)c2cccc(C)c2)c1=O` [(3S)-3-[({[1-(2-chloro-6-methoxybenzyl)-4-hydroxy-2-oxo-1,2-dihydropyridin-3-yl]amino}carbonyl)amino]-3-(3-methylphenyl)propanoic acid], the concentration for half-maximal inhibition (IC50) under setting [2] was 5 nM.

On to `COc1cccc(Cl)c1Cn1ccc(O)c(NC(=O)N[C@@H](CC(=O)O)c2ccc(C)cc2)c1=O` [(3S)-3-[({[1-(2-chloro-6-methoxybenzyl)-4-hydroxy-2-oxo-1,2-dihydropyridin-3-yl]amino}carbonyl)amino]-3-(4-methylphenyl)propanoic acid], for which the half-maximal inhibitory concentration (IC50) under setting [2] was 3 nM.

As for `CCOc1ccc([C@H](CC(=O)O)NC(=O)Nc2c(O)c(C)cn(Cc3c(Cl)cccc3OC)c2=O)cc1OCC` [(3S)-3-[({[1-(2-chloro-6-methoxybenzyl)-4-hydroxy-5-methyl-2-oxo-1,2-dihydropyridin-3-yl]amino}carbonyl)amino]-3-(3,4-diethoxyphenyl)propanoic acid], the half-inhibitory concentration (IC50) (Table 6, 30 minutes at 37° C.) was 2 nM.

Take `CCOc1cccc([C@H](CC(=O)O)NC(=O)Nc2c(O)c3c(n(Cc4c(C)cccc4Cl)c2=O)CCC3)c1` [(3S)-3-[({[1-(2-chloro-6-methylbenzyl)-4-hydroxy-2-oxo-2,5,6,7-tetrahydro-1H-cyclopenta[b]pyridin-3-yl]amino}carbonyl)amino]-3-(3-ethoxyphenyl)propanoic acid]: the IC50 (Table 6, 30 minutes at 37° C.) was 4 nM.

For `Cc1ccc([C@H](CC(=O)O)NC(=O)Nc2c(O)c(C)cn(Cc3c(C)cccc3Cl)c2=O)cc1` [(3S)-3-[({[1-(2-chloro-6-methylbenzyl)-4-hydroxy-5-methyl-2-oxo-1,2-dihydropyridin-3-yl]amino}carbonyl)amino]-3-(4-methylphenyl)propanoic acid], under setting [2], the IC50 was 10 nM.

On to `O=C(O)C[C@H](NC(=O)Nc1c(O)ccn(Cc2ccccc2Cl)c1=O)c1ccc2c(c1)OCCO2` [(3S)-3-[({[1-(2-chlorobenzyl)-4-hydroxy-2-oxo-1,2-dihydropyridin-3-yl]amino}carbonyl)amino]-3-(2,3-dihydro-1,4-benzodioxin-6-yl)propanoic acid], for which the 50% inhibitory concentration (IC50) under setting [2] is 10 nM.

Turning to `CCOc1ccc([C@H](CC(=O)O)NC(=O)Nc2c(O)ccn(Cc3ccccc3Cl)c2=O)cc1OCC` [(3S)-3-[({[1-(2-chlorobenzyl)-4-hydroxy-2-oxo-1,2-dihydropyridin-3-yl]amino}carbonyl)amino]-3-(3,4-diethoxyphenyl)propanoic acid], the 50% inhibitory concentration (IC50) under setting [2] was 0.8 nM.
